Here are results for 14 molecules from US11147272B2, “Pyridone compounds and agricultural and horticultural fungicides comprising the same as active ingredients” (MITSUI CHEMICALS AGRO, INC., priority 2017, dated 2021).

In experiment [1] the test system is Colletotrichum orbiculare. Put plainly: Test Example H: Anthracnose on cucumber. The conditions noted are these: Anthracnose on cucumber; 250 ppm spray, 6 to 10 days after inoculation.
Another experiment has as its system Plasmopara viticola. Put plainly: Test Example G: Downy mildew on vine. Conditions: Downy mildew on vine; 250 ppm spray, 7 to 10 days after inoculation.
The subject of another experiment is Phytophthora infestans. Put plainly: whole plant or invertebrate. Conditions: Late blight on tomato; control value class. Type of experiment: in vivo.
Experiment [2] relates to Blumeria graminis f. sp. hordei. Put plainly: Test Example D: Powdery mildew on barley. The conditions noted are these: Powdery mildew on barley; control value class.
The subject of a further experiment is Puccinia recondita. Put plainly: Test Example E: Brown rust on wheat. Conditions: Brown rust on wheat; control value class. Type of experiment: in vivo.
The next experiment relates to Alternaia brassicicola. Put plainly: Test Example C: Alternaria sooty spot on cabbage. The format is in vivo. Conditions: Alternaria sooty spot on cabbage; control value class. From the text: Seeds of a test plant (cabbage variety: Shikidori) were planted and cultivated until the cotyledons extended.
<Control Value> Control value=100{1−(n/3)}

A further experiment deals with Magnaporthe grisea. Put plainly: whole plant or invertebrate. The format is in vivo. The conditions noted are these: Blast on rice; control value class.
Another experiment relates to Botrytis cinerea. The experiment is described as follows: Test Example B: Gray mold on tomato. Conditions: Gray mold on tomato; control value class.

Each structure is given as a SMILES string.

Turning to `CC(C)CC1=C(c2c(F)cc(F)cc2F)N(CC(F)F)C(=O)CC1` [compound 296], the “Test H control value” in experiment [1] was “L (50% or less control value)”. For the same molecule, the “Test G control value” in the experiment with Plasmopara viticola is “L (50% or less control value)”. Moreover, the “Test F control value” in the experiment with Phytophthora infestans is “L (50% or less control value)”. Also, the “Test D control value” in experiment [2] is reported as “L (50% or less control value)”. The “Test E control value” with Puccinia recondita is reported as “H (more than 50% control value)”. The “Test C control value” in the experiment with Alternaia brassicicola is given as “H (more than 50% control value)”. Also, in the experiment on Magnaporthe grisea, the “Test A control value” is “L (50% or less control value)”. Besides, the “Test B control value” in the experiment with Botrytis cinerea is “L (50% or less control value)”.
For `CC(C)Cc1ccc(=O)n(CC(F)F)c1-c1c(F)cc(F)cc1F` [compound 297], in experiment [1], the “Test H control value” was “L (50% or less control value)”. The “Test G control value” in the experiment with Plasmopara viticola was “H (more than 50% control value)”. Besides, the “Test F control value” in the experiment with Phytophthora infestans is recorded as “L (50% or less control value)”. For the same molecule, in experiment [2], the “Test D control value” is given as “H (more than 50% control value)”. The “Test E control value” with Puccinia recondita is “H (more than 50% control value)”. Moreover, in the experiment on Alternaia brassicicola, the “Test C control value” was “H (more than 50% control value)”. Besides, the “Test A control value” in the experiment with Magnaporthe grisea is given as “L (50% or less control value)”. Besides, the “Test B control value” in the experiment on Botrytis cinerea was “H (more than 50% control value)”.
`CCn1c(-c2ccc(F)cc2Cl)c(CC=O)cc(Cl)c1=O` [compound 298]: the “Test H control value” in experiment [1] was “H (more than 50% control value)”. Moreover, the “Test G control value” in the experiment on Plasmopara viticola was “L (50% or less control value)”. Also, in the experiment with Phytophthora infestans, the “Test F control value” is reported as “L (50% or less control value)”. Moreover, the “Test D control value” in experiment [2] is on record as “L (50% or less control value)”. Further, the “Test E control value” in the experiment with Puccinia recondita was “L (50% or less control value)”. Further, the “Test C control value” in the experiment on Alternaia brassicicola was “H (more than 50% control value)”. For the same molecule, in the experiment with Magnaporthe grisea, the “Test A control value” is on record as “L (50% or less control value)”. Besides, the “Test B control value” in the experiment on Botrytis cinerea is on record as “L (50% or less control value)”.
Regarding `CC=Cc1cc(Cl)c(=O)n(CC)c1-c1ccc(F)cc1Cl` [compound 299], the “Test H control value” in experiment [1] was “H (more than 50% control value)”. Further, the “Test G control value” in the experiment on Plasmopara viticola was “H (more than 50% control value)”. The “Test F control value” with Phytophthora infestans is “L (50% or less control value)”. In addition, in experiment [2], the “Test D control value” is reported as “H (more than 50% control value)”. In addition, the “Test E control value” in the experiment with Puccinia recondita is “H (more than 50% control value)”. The “Test C control value” with Alternaia brassicicola is reported as “H (more than 50% control value)”. Moreover, the “Test A control value” with Magnaporthe grisea is “L (50% or less control value)”. Besides, the “Test B control value” with Botrytis cinerea was “H (more than 50% control value)”.
In the case of `CCn1c(-c2ccc(F)cc2Cl)c(C=C(Br)Br)cc(Cl)c1=O` [compound 301], the “Test H control value” in experiment [1] is reported as “H (more than 50% control value)”. Besides, the “Test G control value” in the experiment on Plasmopara viticola was “L (50% or less control value)”. Moreover, the “Test F control value” in the experiment with Phytophthora infestans was “L (50% or less control value)”. In experiment [2], the “Test D control value” is listed as “H (more than 50% control value)”. In the experiment on Puccinia recondita, the “Test E control value” was “H (more than 50% control value)”. The “Test C control value” in the experiment with Alternaia brassicicola is given as “H (more than 50% control value)”. Further, the “Test A control value” with Magnaporthe grisea was “H (more than 50% control value)”. The “Test B control value” in the experiment on Botrytis cinerea was “H (more than 50% control value)”.
Regarding `C#Cc1cc(Cl)c(=O)n(CC)c1-c1ccc(F)cc1Cl` [compound 302], in experiment [1], the “Test H control value” is reported as “H (more than 50% control value)”. The “Test G control value” in the experiment with Plasmopara viticola is reported as “L (50% or less control value)”. Moreover, the “Test F control value” in the experiment with Phytophthora infestans was “L (50% or less control value)”. Besides, the “Test D control value” in experiment [2] was “L (50% or less control value)”. Moreover, the “Test E control value” in the experiment on Puccinia recondita is “H (more than 50% control value)”. Besides, the “Test C control value” in the experiment on Alternaia brassicicola was “L (50% or less control value)”. Besides, the “Test A control value” in the experiment with Magnaporthe grisea is given as “H (more than 50% control value)”. In the experiment with Botrytis cinerea, the “Test B control value” is on record as “H (more than 50% control value)”.
Take `C#Cc1cc(Cl)c(=O)n(CC)c1-c1c(F)cc(F)cc1F` [compound 303]: the “Test H control value” in experiment [1] is given as “H (more than 50% control value)”. In the experiment on Plasmopara viticola, the “Test G control value” was “L (50% or less control value)”. In addition, in the experiment with Phytophthora infestans, the “Test F control value” is recorded as “L (50% or less control value)”. In experiment [2], the “Test D control value” is listed as “H (more than 50% control value)”. For the same molecule, the “Test E control value” in the experiment with Puccinia recondita is recorded as “H (more than 50% control value)”. Further, the “Test C control value” in the experiment on Alternaia brassicicola is given as “H (more than 50% control value)”. For the same molecule, the “Test A control value” in the experiment on Magnaporthe grisea is given as “L (50% or less control value)”. Moreover, the “Test B control value” in the experiment with Botrytis cinerea is listed as “H (more than 50% control value)”.
Take `CC(C)Cc1cc(Cl)c(=O)n(CC(F)F)c1-c1c(F)cc(F)cc1F` [compound 304]: the “Test H control value” in experiment [1] was “H (more than 50% control value)”. The “Test G control value” in the experiment on Plasmopara viticola is “L (50% or less control value)”. Also, the “Test F control value” in the experiment with Phytophthora infestans was “L (50% or less control value)”. Moreover, the “Test D control value” in experiment [2] is “H (more than 50% control value)”. The “Test E control value” in the experiment on Puccinia recondita was “H (more than 50% control value)”. Also, the “Test C control value” in the experiment on Alternaia brassicicola was “H (more than 50% control value)”. Further, the “Test A control value” in the experiment on Magnaporthe grisea is “H (more than 50% control value)”. The “Test B control value” with Botrytis cinerea is listed as “H (more than 50% control value)”.
On to `CC(C)Cc1cc(Br)c(=O)n(CC(F)F)c1-c1c(F)cc(F)cc1F` [compound 305], for which the “Test H control value” in experiment [1] is recorded as “H (more than 50% control value)”. Moreover, in the experiment with Plasmopara viticola, the “Test G control value” was “L (50% or less control value)”. In the experiment with Phytophthora infestans, the “Test F control value” was “L (50% or less control value)”. The “Test D control value” in experiment [2] was “H (more than 50% control value)”. Besides, in the experiment with Puccinia recondita, the “Test E control value” was “H (more than 50% control value)”. Further, the “Test C control value” in the experiment with Alternaia brassicicola is given as “H (more than 50% control value)”. Also, the “Test A control value” in the experiment on Magnaporthe grisea is reported as “H (more than 50% control value)”. For the same molecule, in the experiment on Botrytis cinerea, the “Test B control value” is given as “H (more than 50% control value)”.
On to `CCn1c(-c2c(F)cc(F)cc2F)c(CC(C)C)cc(C)c1=O` [compound 306], for which, in experiment [1], the “Test H control value” is “H (more than 50% control value)”. In the experiment with Plasmopara viticola, the “Test G control value” is “H (more than 50% control value)”. The “Test F control value” in the experiment on Phytophthora infestans is “L (50% or less control value)”. For the same molecule, the “Test D control value” in experiment [2] was “H (more than 50% control value)”. For the same molecule, the “Test E control value” with Puccinia recondita is given as “H (more than 50% control value)”. Moreover, in the experiment with Alternaia brassicicola, the “Test C control value” is recorded as “H (more than 50% control value)”. Also, the “Test A control value” with Magnaporthe grisea is “H (more than 50% control value)”. Besides, in the experiment on Botrytis cinerea, the “Test B control value” is recorded as “H (more than 50% control value)”.
In the case of `Cc1cc(CC(C)C)c(-c2c(F)cc(F)cc2F)n(CC(F)F)c1=O` [compound 307], in experiment [1], the “Test H control value” is “H (more than 50% control value)”. Moreover, the “Test G control value” with Plasmopara viticola is “L (50% or less control value)”. Besides, the “Test F control value” in the experiment on Phytophthora infestans is recorded as “L (50% or less control value)”. In addition, in experiment [2], the “Test D control value” is “H (more than 50% control value)”. Moreover, in the experiment with Puccinia recondita, the “Test E control value” is listed as “H (more than 50% control value)”. In addition, the “Test C control value” with Alternaia brassicicola is recorded as “H (more than 50% control value)”. In addition, the “Test A control value” with Magnaporthe grisea is “L (50% or less control value)”. Besides, in the experiment with Botrytis cinerea, the “Test B control value” is “H (more than 50% control value)”.
`CCn1c(-c2c(F)cc(F)cc2F)c(COc2ccccc2)cc(Cl)c1=O` [compound 308]: the “Test H control value” in experiment [1] is given as “L (50% or less control value)”. Besides, the “Test G control value” in the experiment on Plasmopara viticola is given as “L (50% or less control value)”. Moreover, the “Test F control value” in the experiment with Phytophthora infestans is “L (50% or less control value)”. Further, the “Test D control value” in experiment [2] is reported as “L (50% or less control value)”. The “Test E control value” with Puccinia recondita is reported as “L (50% or less control value)”. Further, in the experiment on Alternaia brassicicola, the “Test C control value” is on record as “H (more than 50% control value)”. For the same molecule, the “Test A control value” in the experiment with Magnaporthe grisea is reported as “H (more than 50% control value)”. Also, the “Test B control value” in the experiment with Botrytis cinerea is listed as “L (50% or less control value)”.
`CCn1c(-c2c(F)cc(F)cc2F)c(C(Cl)=CCl)cc(Cl)c1=O` [compound 309]: the “Test H control value” in experiment [1] is given as “H (more than 50% control value)”. Further, the “Test G control value” in the experiment on Plasmopara viticola was “H (more than 50% control value)”. The “Test F control value” with Phytophthora infestans is given as “L (50% or less control value)”. For the same molecule, the “Test D control value” in experiment [2] was “H (more than 50% control value)”. Further, the “Test E control value” in the experiment with Puccinia recondita is “H (more than 50% control value)”. The “Test C control value” with Alternaia brassicicola is reported as “H (more than 50% control value)”. Also, in the experiment with Magnaporthe grisea, the “Test A control value” is given as “H (more than 50% control value)”. Moreover, the “Test B control value” in the experiment on Botrytis cinerea is “H (more than 50% control value)”.
In the case of `CCn1c(-c2c(F)cc(F)cc2F)c(COc2ccc(OC)cc2)cc(Cl)c1=O` [compound 310], in experiment [1], the “Test H control value” is reported as “L (50% or less control value)”. Further, in the experiment with Plasmopara viticola, the “Test G control value” is listed as “H (more than 50% control value)”. Further, the “Test F control value” with Phytophthora infestans is reported as “L (50% or less control value)”. Also, in experiment [2], the “Test D control value” was “L (50% or less control value)”. Further, the “Test E control value” in the experiment on Puccinia recondita is on record as “H (more than 50% control value)”. Also, the “Test C control value” with Alternaia brassicicola is given as “H (more than 50% control value)”. Further, the “Test A control value” in the experiment with Magnaporthe grisea is “L (50% or less control value)”. Also, in the experiment on Botrytis cinerea, the “Test B control value” is “H (more than 50% control value)”.
